Test results published in PMC9583322, “Vicinal Diaryl-Substituted Isoxazole and Pyrazole Derivatives with In Vitro Growth Inhibitory and In Vivo Antitumor Activity” (ACS Omega, 2022).

Tests used:
[1] = test system: Mahlavu; assay: SRB cytotoxicity assay; assay type: cell-based, human; conditions: Homo sapiens, Mahlavu, 72 h, 72 h treatment
How it was run: (§1)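 Cells seeded 24 h before 72 h compound exposure, 40 to 2.5 μM (or 2.5 to 0.15 μM for compounds below 2.5 μM). TCA-fixed, stained with sulforhodamine B, absorbance at 515 nm. IC50 relative to DMSO control; fits with R^2 above 0.9 accepted.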

[2] = test system: MCF7; assay: SRB cytotoxicity assay; assay type: cell-based, human; conditions: 72 h treatment
How it was run: as §1

[3] = test system: Huh7; assay: SRB cytotoxicity assay; assay type: cell-based, human; conditions: 72 h treatment
How it was run: as §1

[4] = test system: IGROV1; assay: NCI-60 single-dose screen; assay type: cell-based; conditions: Homo sapiens, IGROV-1, IGROV1, Ovarian Cancer, read-out: % Growth Inhibition (GI%)
Experimental: (§2) Moreover, in vitro single-dose anticancer screening of 11 and 85 at 10 μM was performed utilizing the stable panel of 60 cell lines comprising 9 different cancer types at the National Cancer Institute (NCI) under the Developmental Therapeutics Program (Table S1).[31]

[5] = test system: BT-549; assay: NCI-60 single-dose screen; assay type: cell-based; conditions: Homo sapiens, BT-549, Breast Cancer, read-out: % Growth Inhibition (GI%)
Experimental: as §2

[6] = test system: U251; assay: NCI-60 single-dose screen; assay type: cell-based; conditions: Homo sapiens, U-251, U251, CNS Cancer, read-out: % Growth Inhibition (GI%)
Experimental: as §2

[7] = test system: MALME-3M; assay: NCI-60 single-dose screen; assay type: cell-based; conditions: Homo sapiens, Melanoma, read-out: % Growth Inhibition (GI%)
Experimental: as §2

[8] = test system: COLO 205; assay: NCI-60 single-dose screen; assay type: cell-based; conditions: Homo sapiens, COLO 205, Colon Cancer, read-out: % Growth Inhibition (GI%)
Experimental: as §2

[9] = test system: HS 578T; assay: NCI-60 single-dose screen; assay type: cell-based; conditions: Homo sapiens, Breast Cancer, read-out: % Growth Inhibition (GI%)
Experimental: as §2

[10] = test system: SK-MEL-28; assay: NCI-60 single-dose screen; assay type: cell-based; conditions: Homo sapiens, SK-MEL-28, Melanoma, read-out: % Growth Inhibition (GI%)
Experimental: as §2

[11] = test system: MCF7; assay: NCI-60 single-dose screen; assay type: cell-based; conditions: Homo sapiens, MCF7, Breast Cancer, read-out: % Growth Inhibition (GI%)
Experimental: as §2

[12] = test system: 786-0; assay: NCI-60 single-dose screen; assay type: cell-based; conditions: Homo sapiens, 786-0, Renal Cancer, read-out: % Growth Inhibition (GI%)
Experimental: as §2

[13] = test system: K-562; assay: NCI-60 single-dose screen; assay type: cell-based; conditions: Homo sapiens, K562, K-562, Leukemia, read-out: % Growth Inhibition (GI%)
Experimental: as §2

[14] = test system: SNB-19; assay: NCI-60 single-dose screen; assay type: cell-based; conditions: Homo sapiens, SNB-19, CNS Cancer, read-out: % Growth Inhibition (GI%)
Experimental: as §2

[15] = test system: HT29; assay: NCI-60 single-dose screen; assay type: cell-based; conditions: Homo sapiens, HT-29, HT29, Colon Cancer, read-out: % Growth Inhibition (GI%)
Experimental: as §2

[16] = test system: SNB-75; assay: NCI-60 single-dose screen; assay type: cell-based; conditions: Homo sapiens, SNB-75, CNS Cancer, read-out: % Growth Inhibition (GI%)
Experimental: as §2

[17] = test system: NCI-H226; assay: NCI-60 single-dose screen; assay type: cell-based; conditions: Homo sapiens, NCI-H226, Non-Small Cell Lung Cancer, read-out: % Growth Inhibition (GI%)
Experimental: as §2

Structure (SMILES) | IC50 [1] [µM] | IC50 ([2]; Homo sapiens, MCF7, 72 h) [µM] | IC50 ([3]; Homo sapiens, Huh-7, 72 h) [µM] | inhibition at 10 µM [4] [%] | inhibition at 10 µM [5] [%] | inhibition at 10 µM [6] [%] | inhibition at 10 µM [7] [%] | inhibition at 10 µM [8] [%] | inhibition at 10 µM [9] [%] | inhibition at 10 µM [10] [%] | inhibition at 10 µM [11] [%] | inhibition at 10 µM [12] [%] | inhibition at 10 µM [13] [%] | inhibition at 10 µM [14] [%] | inhibition at 10 µM [15] [%] | inhibition at 10 µM [16] [%] | inhibition at 10 µM [17] [%] | IC50 [2] [µM] | IC50 [3] [µM]
Cc1ccccc1COc1ccc(-c2noc(C)c2-c2ccc(Cl)cc2)cc1 [compound 11, 4-(4-Chlorophenyl)-5-methyl-3-(4-((2-methylbenzyl)oxy)phenyl)isoxazole] | 3.2 | 3.8 | 1.3 | 47.5 | 33.8 | 58.7 | 40.2 | 29 | 40.6 | 29.6 | 68.3 | 24.5 | 85.6 | 44.5 | 83.1 | 47.1 | 42.8 | – | –
Cc1ccccc1COc1ccc(-c2ccnn2-c2ccc(Cl)cc2)cc1 [compound 85, 1-(4-Chlorophenyl)-5-(4-((2-methylbenzyl)oxy)phenyl)-1H-pyrazole] | 3.7 | < 1 | < 1 | 42.5 | 25 | 54 | 32.8 | 28.8 | 39.1 | 30.6 | 68.1 | 17.2 | 86.3 | 38 | 82.4 | 39.3 | 29.7 | 0.9 | 0.7
